The values that follow come from patent US10750729B2, “Pig for atrioventricular block model, monkey for atrioventricular block model, guinea pig for atrioventricular block model, and use thereof” (Toho University, priority 2012, dated 2020).

Data set [1] concerns Guinea pigs (Hartley). Kind of data set: Test Example 3-1: electrocardiogram and aortic pressure of halothane-anesthetized guinea pigs (FTY720). In kind it is in vivo. As to conditions: guinea pig. The protocol:
Guinea pigs (Hartley, body weight: 420 g to 650 g, male, obtained from Japan SLC, Inc.) were each anesthetized by intraperitoneally administering thereto sodium thiopental (product of Mitsubishi Tanabe Pharma Corporation) at 50 mg/kg. Next, a tracheal cannula was inserted into each of the guinea pigs. While their body temperature was being maintained at 37° C. with a warming pad, the guinea pigs were allowed to inhale 100% by volume oxygen and 1% by volume vaporized halothane (product of Takeda Pharmaceutical Company Limited.) using an artificial respirator for experimental animals (SN-480-7; product of shimano Co., Ltd.). Here, the artificial respirator for experimental animals was set to a tidal volume of 10 mL/kg and a respiration rate of 60 strokes/min. Next, a cannula for drug administration was inserted to their left femoral vein. In addition, a heparinized catheter for monitoring the blood pressure was inserted to the aorta through the left femoral […]. Then, ECG standard limb II leads was continuously recorded.
Each of the guinea pigs (n=12) of Example 3 was recorded for an electrocardiogram before administration of a drug or a solvent.
FTY720 (product of Sigma-Aldrich Inc.) was dissolved in physiological saline (product of Otsuka Pharmaceutical Factory, Inc.) so as to have a concentration of 0.03 mg/mL.
After the evaluation of base control, the cannula for drug administration was inserted, and the above-prepared FTY720 solution was intravenously administered to each of the guinea pigs (n=4) of Example 3 for 10 min at a dose of 0.01 mg/kg. These guinea pigs were evaluated for parameters by the following evaluation methods at 5 min, 10 min, 15 min, 20 min, 30 min, 45 min or 60 min after the administration of the FTY720 solution.
FTY720 (product of Sigma-Aldrich Inc.) was dissolved in physiological saline (product of Otsuka Pharmaceutical Factory, Inc.) so as to have a concentration of 0.3 mg/mL.
After the evaluation of base control, the cannula for drug administration was inserted, and the above-prepared FTY720 solution was intravenously administered to each of the guinea pigs (n=4) of Example 3 for 10 min at a dose of 0.1 mg/kg. These guinea pigs were evaluated for parameters by the following evaluation methods at 5 min, 10 min, 15 min, 20 min, 30 min, 45 min or 60 min after the administration of the FTY720 solution.
The aortic pressure and the electrocardiogram were monitored using a polygraph system (RM-6000, product of NIHON KOHDEN Co. Ltd.) and analyzed with a full-automated analysis system in real time (WinVAS ver. 3, 1.1R03; product of Physio-Tech Co., Ltd.).
Parameters of the electrocardiogram were measured three times, and the obtained values were averaged. Atrial rate was calculated from PP interval of the electrocardiogram. Ventricular rate was calculated from RR interval of the electrocardiogram.
The measurements in FIGS. 4A to 4E are expressed as mean±SE (n=4). The difference between the parameters was evaluated with one-way repeated measures analysis of variance (ANOVA). It was considered that p<0.05 is statistically significant. In FIG. 4A to 4C and FIG. 4E, “white circle,” “white square” and “white triangle” each mean absence of a significant difference relative to the value of the evaluation of base control (C), and “black circle” and “black square” each mean presence of a significant difference relative to the value of the evaluation of base control (C).
Also, in FIG. 4D, “white circle” means absence of development of atrioventricular block or presence of development of first-degree atrioventricular block, “white square” means presence of development of second-degree atrioventricular block (Wenckebach type), “white triangle” means presence of development of advanced atrioventricular block, “x-mark” means presence of development of third-degree atrioventricular block (complete atrioventricular block), and #1 to 4 refer to each individual.

The test system of data set [2] is dog. As to conditions: dose 10 times to 30 times greater than that for human; cited from earlier work.
Setting [3] is: FTY720 0.01 and 0.1 mg/kg/10 min i.v., for 60 min from start.
[4] abbreviates: high-dose 0.1 mg/kg/10 min i.v., n=4.

In the case of `CCCCCCCCc1ccc(CCC(N)(CO)CO)cc1` [FTY720, Fingolimod], in data set [1] (setting [3]), the “change in atrial rate” value is “no significant change” and the “change in blood pressure (MBP)” value is listed as “no significant change”. For the same compound, the “change in QRS width” value in data set [1] (high-dose 0.1 mg/kg/10 min i.v.) is “no significant change”. The “correspondence of P wave and R wave in the electrocardiogram” value in data set [1] (high-dose 0.1 mg/kg/10 min i.v., 45 min after start) is “the atrium and the ventricle are contracted independently of each other at their own individual rhythms”. Besides, in data set [1] (high-dose 0.1 mg/kg/10 min i.v., before development of atrioventricular block), the “change in PR interval” value is “prolonged”. Further, the “change in ventricular rate” value in data set [1] (high-dose 0.1 mg/kg/10 min i.v., from 20 min to 60 min) is “significant decrease”. In addition, the “change in QT interval” value in data set [1] (high-dose 0.1 mg/kg/10 min i.v., from 45 min to 60 min) is listed as “prolonged”. Moreover, in data set [1] (setting [4]), the “individuals that developed Wenckebach-type atrioventricular block” value is “one individual” and the “individuals that developed complete atrioventricular block” value is reported as “three individuals out of the four individuals”. Moreover, the “change in any electrophysiological parameters (PR interval, QRS width, QT interval)” value in data set [1] (low-dose 0.01 mg/kg/10 min i.v., at 60 min from start) was “no significant change”. In data set [1] (low-dose 0.01 mg/kg/10 min i.v., for 60 min from start), the “change in ventricular rate” value was “no significant change”. Moreover, the “occurrence of atrioventricular block” value in data set [2] is “not reported”.
